Experimental findings from paper PMC4464647, “ANO1 (TMEM16A) in pancreatic ductal adenocarcinoma (PDAC)” (Pflugers Archiv, 2014) are described below.

Holding throughout (type): cell-based, human
The subject of one assay is HPDE cells. Briefly: Fura-2 measurement of free intracellular calcium, ATP stimulation. The conditions noted are these: ATP 10 μM, no inhibitor. The procedure: (§1) HPDE and BxPC-3 cells were incubated with 2 μM Fura-2 AM (Sigma-Aldrich, Denmark) for 30 min at 37 °C. Cells were subsequently washed with Krebs solution containing (in mM) 150 NaCl, 6 KCl, 1.5 CaCl2, 1 MgCl2, 10 glucose, and 10 HEPES; pH was adjusted to 7.4 using NaOH. Coverslips were mounted on a recording chamber. In the beginning of the experiment, cells were perfused with Krebs solution at 4 ml/min until baseline was stable. […] Changes in [Ca^2+]i were measured by a TIRF iMIC microscope (TILL Photonics, Germany). Fura-2 AM loaded cells were illuminated at 340 nm for 80 ms and 380 nm for 80 ms at 1 s intervals using a TILL Polychrome monochromator. Five hundred-nanometer emission images were captured by an image-intensifying, charge-coupled device (CCD) camera (TILL Photonics, Germany) and digitized by an image processing system (TILL Photonics, Germany). The monochromator and CCD camera were controlled by LA Live Acquisition software, which was also used for image analysis. The [Ca^2+]i was presented as the Fura-2 ratio of the fluorescence signals obtained at 340/380 nm.
(§2) Fig. 8 Cl^− channel inhibitors alter ATP-induced Ca^2+ signals. Intracellular Ca^2+ measurements in FURA-2 loaded HPDE and BxPC-3 cells. a Representative single-cell traces of individual experiments. Different substances were applied as indicated. […] (n) = number of individual experiments; each containing between 5–45 single cells.***p ≤ 0.001 when compared to no inhibitor condition; ^## p ≤ 0.01 when compared with HPDE no inhibitor
(§3) Activation of CaCC requires an increase in [Ca^2+]i, which can be achieved by stimulation of receptors such as purinergic receptors. Therefore, we studied the effect of Cl^− channel inhibitors on changes in [Ca^2+]i induced by purinergic signaling. We chose HPDE cells with very low expression levels of ANO1 and the highly ANO1 overexpressing cell line BxPC-3 for investigation. Fura-2 loaded HPDE and BxPC-3 cells were stimulated with ATP (10 μM) (Fig. 8) or exposed to the inhibitor prior to stimulation. ATP stimulation caused a 0.46 ± 0.03 peak increase in the Fura-2 ratio in HPDE and 0.55 ± 0.02 in BxPC-3 cells. […] However, no effect of the inhibitor on basal Ca^2+ level was observed.
A general note: A change in cytosolic calcium serves as a functional read-out for many receptors and channels.

In another assay the test system is BxPC-3 cells. The assay is described as above. As to conditions: BxPC-3, ATP 10 μM, no inhibitor. As for the experimental part:
as §1, §2, §3

In assay [1] the test system is HPDE, Capan-1, AsPC-1, and BxPC-3 cells. The assay is described as follows: BrdU incorporation cell proliferation assay, all tested cell lines. As to conditions: all tested cells, gemcitabine 20 μM, data not shown. The procedure:
To assess cell proliferation and apoptosis, cells were plated in duplicates on a 96-well plate and incubated in 100 μl of the cell line appropriate media described above. Cells were transfected with siRNA soon after complete attachment (approx. 3 h after seeding). Cells were treated with vehicle, 20 μM gemcitabine, 20 μM T16Ainh-A01, or 10 μM free NS3728 (see below) after culture in a humidified 37 °C and 5 % CO2 incubator overnight. BrdU incorporation was measured using Cell Proliferation ELISA, BrdU (chemiluminescent) (Roche Diagnostics A/S, Denmark) following the manufacturer’s instructions. Caspases 3, 6, and 7 activation was evaluated using Homogeneous Caspases Assay (fluorimetric) (Roche Diagnostics A/S, Denmark).
Fig. 7 VRAC, but not ANO1, regulates cellular proliferation. a Summary of BrdU incorporation in HPDE, Capan-1, AsPC-1, and BxPC-3 cells after various treatments as indicated. Cells were transfected shortly after complete attachment (approx. 3 h) and BrdU incorporation was assessed 36 h after transfection. To investigate effect of inhibitors, cells were incubated for 24 h with respective inhibitor. Values shown are relative to appropriate control. Data shown represents mean ± s.e.m. of n = 4–6 individual experiments. **p ≤ 0.01 and ***p ≤ 0.001 when compared with control

As to `Nc1ncnc2c1ncn2[C@@H]1O[C@H](COP(=O)(O)OP(=O)(O)OP(=O)(O)O)[C@@H](O)[C@H]1O` [ATP], the “peak increase in the Fura-2 ratio” value in the assay with HPDE cells was found to be 0.46 ± 0.03; with BxPC-3 cells, 0.55 ± 0.02.
For the compound `Nc1ccn([C@@H]2O[C@H](CO)[C@@H](O)C2(F)F)c(=O)n1` [gemcitabine], the “proliferation (BrdU incorporation)” value in assay [1] is given as “almost complete inhibition of proliferation”.
